Measurements as given in ChEMBL document CHEMBL3763148, “Synthesis, structure elucidation, DNA-PK and PI3K and anti-cancer activity of 8- and 6-aryl-substituted-1-3-benzoxazines” (Eur J Med Chem, 2016).

Tests used:
[1] = target: Phosphatidylinositol 4,5-bisphosphate 3-kinase catalytic subunit gamma isoform (Homo sapiens) (UniProt P48736); assay: Inhibition of PI3Kgamma (unknown origin) at 10 uM incubated for 60 mins by kinase-glo luminescence assay
[2] = Cytotoxicity against human COLO205 cells assessed as cell growth inhibition at 10 uM after 48 hrs by SRB assay relative to control; assay type: functional; settings: COLO 205, 48 h, read-out: GI
[3] = Cytotoxicity against human OVCAR3 cells assessed as cell growth inhibition at 10 uM after 48 hrs by SRB assay relative to control; assay type: functional; settings: OVCAR-3, 48 h, read-out: GI
[4] = Cytotoxicity against human SKOV3 cells assessed as cell growth inhibition at 10 uM after 48 hrs by SRB assay relative to control; assay type: functional; settings: SK-OV-3, 48 h, read-out: GI
SR = assay: Cytotoxicity against human SR cells assessed as cell growth inhibition at 10 uM after 48 hrs by SRB assay relative to control; assay type: functional; settings: read-out: GI
NCI-H322M = assay: Cytotoxicity against human NCI-H322M cells assessed as cell growth inhibition at 10 uM after 48 hrs by SRB assay relative to control; assay type: functional; settings: read-out: GI
Malme-3M = assay: Cytotoxicity against human MALME-3M cells assessed as cell growth inhibition at 10 uM after 48 hrs by SRB assay relative to control; assay type: functional; settings: read-out: GI
[5] = Cytotoxicity against human RPMI8226 cells assessed as cell growth inhibition at 10 uM after 48 hrs by SRB assay relative to control; assay type: functional; settings: RPMI-8226, 48 h, read-out: GI
NCI-H522 = assay: Cytotoxicity against human NCI-H522 cells assessed as cell growth inhibition at 10 uM after 48 hrs by SRB assay relative to control; assay type: functional; settings: NCI-H522, 48 h, read-out: GI
[6] = Cytotoxicity against human SNB19 cells assessed as cell growth inhibition at 10 uM after 48 hrs by SRB assay relative to control; assay type: functional; settings: SNB-19, 48 h, read-out: GI
[7] = Cytotoxicity against human SF539 cells assessed as cell growth inhibition at 10 uM after 48 hrs by SRB assay relative to control; assay type: functional; settings: SF-539, 48 h, read-out: GI
SK-MEL-28 = assay: Cytotoxicity against human SK-MEL-28 cells assessed as cell growth inhibition at 10 uM after 48 hrs by SRB assay relative to control; assay type: functional; settings: SK-MEL-28, 48 h, read-out: GI
786-0 = assay: Cytotoxicity against human 786-0 cells assessed as cell growth inhibition at 10 uM after 48 hrs by SRB assay relative to control; assay type: functional; settings: 786-0, 48 h, read-out: GI
U-251 = assay: Cytotoxicity against human U251 cells assessed as cell growth inhibition at 10 uM after 48 hrs by SRB assay relative to control; assay type: functional; settings: U-251, 48 h, read-out: GI
NCI-H23 = assay: Cytotoxicity against human NCI-H23 cells assessed as cell growth inhibition at 10 uM after 48 hrs by SRB assay relative to control; assay type: functional; settings: NCI-H23, 48 h, read-out: GI
MDA-MB-435 = assay: Cytotoxicity against human MDA-MB-435 cells assessed as cell growth inhibition at 10 uM after 48 hrs by SRB assay relative to control; assay type: functional; settings: MDA-MB-435, 48 h, read-out: GI
[8] = Cytotoxicity against human SW620 cells assessed as cell growth inhibition at 10 uM after 48 hrs by SRB assay relative to control; assay type: functional; settings: SW-620, 48 h, read-out: GI
ACHN = assay: Cytotoxicity against human ACHN cells assessed as cell growth inhibition at 10 uM after 48 hrs by SRB assay relative to control; assay type: functional; settings: read-out: GI
[9] = Cytotoxicity against human SF268 cells assessed as cell growth inhibition at 10 uM after 48 hrs by SRB assay relative to control; assay type: functional; settings: SF-268, 48 h, read-out: GI
[10] = Cytotoxicity against human HOP92 cells assessed as cell growth inhibition at 10 uM after 48 hrs by SRB assay relative to control; assay type: functional; settings: HOP-92, 48 h, read-out: GI
[11] = Cytotoxicity against human HL-60(TB) cells assessed as cell growth inhibition at 10 uM after 48 hrs by SRB assay relative to control; assay type: functional; settings: HL-60, 48 h, read-out: GI
[12] = target: DNA-dependent protein kinase catalytic subunit (Homo sapiens, UniProt P78527); assay: Inhibition of human DNA-PK using EPPLSQEAFADLWKK as substrate by HTRF assay
SN12C = assay: Cytotoxicity against human SN12C cells assessed as cell growth inhibition at 10 uM after 48 hrs by SRB assay relative to control; assay type: functional; settings: read-out: GI
[13] = Cytotoxicity against human HCC2998 cells assessed as cell growth inhibition at 10 uM after 48 hrs by SRB assay relative to control; assay type: functional; settings: HCC 2998, 48 h, read-out: GI
[14] = Cytotoxicity against human MOLT4 cells assessed as cell growth inhibition at 10 uM after 48 hrs by SRB assay relative to control; assay type: functional; settings: MOLT-4, 48 h, read-out: GI
[15] = Cytotoxicity against human NCI-ADR-RES cells assessed as cell growth inhibition at 10 uM after 48 hrs by SRB assay relative to control; assay type: functional; settings: read-out: GI
[16] = Cytotoxicity against human OVCAR4 cells assessed as cell growth inhibition at 10 uM after 48 hrs by SRB assay relative to control; assay type: functional; settings: OVCAR-4, 48 h, read-out: GI
[17] = Cytotoxicity against human OVCAR8 cells assessed as cell growth inhibition at 10 uM after 48 hrs by SRB assay relative to control; assay type: functional; settings: OVCAR-8, 48 h, read-out: GI
[18] = Cytotoxicity against human UACC257 cells assessed as cell growth inhibition at 10 uM after 48 hrs by SRB assay relative to control; assay type: functional; settings: UACC-257, 48 h, read-out: GI
HT-29 = assay: Cytotoxicity against human HT-29 cells assessed as cell growth inhibition at 10 uM after 48 hrs by SRB assay relative to control; assay type: functional; settings: HT-29, 48 h, read-out: GI
MDA-MB-468 = assay: Cytotoxicity against human MDA-MB-468 cells assessed as cell growth inhibition at 10 uM after 48 hrs by SRB assay relative to control; assay type: functional; settings: MDA-MB-468, 48 h, read-out: GI
[19] = Cytotoxicity against human Hs 578T cells assessed as cell growth inhibition at 10 uM after 48 hrs by SRB assay relative to control; assay type: functional; settings: read-out: GI
[20] = Cytotoxicity against human BT549 cells assessed as cell growth inhibition at 10 uM after 48 hrs by SRB assay relative to control; assay type: functional; settings: BT-549, 48 h, read-out: GI
SK-MEL-5 = assay: Cytotoxicity against human SK-MEL-5 cells assessed as cell growth inhibition at 10 uM after 48 hrs by SRB assay relative to control; assay type: functional; settings: SK-MEL-5, 48 h, read-out: GI
[21] = Cytotoxicity against human RXF393 cells assessed as cell growth inhibition at 10 uM after 48 hrs by SRB assay relative to control; assay type: functional; settings: RXF 393, 48 h, read-out: GI

Sequence of Phosphatidylinositol 4,5-bisphosphate 3-kinase catalytic subunit gamma isoform (Homo sapiens) (P48736 whole entry, looked up, canonical isoform): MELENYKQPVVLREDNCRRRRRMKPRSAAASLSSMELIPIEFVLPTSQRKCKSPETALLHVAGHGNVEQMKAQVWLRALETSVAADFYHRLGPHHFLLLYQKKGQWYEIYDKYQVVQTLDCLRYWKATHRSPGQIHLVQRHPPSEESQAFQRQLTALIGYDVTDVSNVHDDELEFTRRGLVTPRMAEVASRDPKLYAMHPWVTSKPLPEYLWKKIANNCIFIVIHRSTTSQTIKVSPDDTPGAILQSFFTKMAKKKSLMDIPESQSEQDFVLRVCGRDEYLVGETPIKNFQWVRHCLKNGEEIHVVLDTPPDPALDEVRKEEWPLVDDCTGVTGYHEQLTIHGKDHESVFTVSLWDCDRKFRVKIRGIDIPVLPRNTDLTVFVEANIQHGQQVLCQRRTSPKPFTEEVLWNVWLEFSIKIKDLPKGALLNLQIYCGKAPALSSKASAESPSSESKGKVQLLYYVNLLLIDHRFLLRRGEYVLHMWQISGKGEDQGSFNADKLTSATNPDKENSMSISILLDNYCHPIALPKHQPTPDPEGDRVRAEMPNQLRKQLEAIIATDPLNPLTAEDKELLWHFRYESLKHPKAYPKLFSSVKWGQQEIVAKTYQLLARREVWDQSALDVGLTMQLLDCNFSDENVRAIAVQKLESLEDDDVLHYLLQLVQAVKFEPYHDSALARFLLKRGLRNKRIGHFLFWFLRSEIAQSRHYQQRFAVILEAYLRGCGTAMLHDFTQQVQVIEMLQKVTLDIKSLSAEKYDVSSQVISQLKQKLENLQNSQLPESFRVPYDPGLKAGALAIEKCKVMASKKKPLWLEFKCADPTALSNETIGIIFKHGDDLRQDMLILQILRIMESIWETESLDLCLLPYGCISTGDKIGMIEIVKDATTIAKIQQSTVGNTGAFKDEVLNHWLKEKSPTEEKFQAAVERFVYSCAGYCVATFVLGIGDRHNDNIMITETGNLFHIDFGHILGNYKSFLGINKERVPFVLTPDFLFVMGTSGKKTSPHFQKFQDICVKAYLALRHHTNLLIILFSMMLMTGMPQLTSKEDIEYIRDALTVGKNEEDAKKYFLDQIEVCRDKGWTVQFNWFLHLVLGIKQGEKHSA

| SMILES | inhibition [1] [%] | inhibition of growth at 10 µM [2] [%] | inhibition of growth at 10 µM [3] [%] | inhibition of growth at 10 µM [4] [%] | inhibition of growth at 10 µM (SR) [%] | inhibition of growth at 10 µM (NCI-H322M) [%] | inhibition of growth at 10 µM (Malme-3M) [%] | inhibition of growth at 10 µM [5] [%] | inhibition of growth at 10 µM (NCI-H522) [%] | inhibition of growth at 10 µM [6] [%] | inhibition of growth at 10 µM [7] [%] | inhibition of growth at 10 µM (SK-MEL-28) [%] | inhibition of growth at 10 µM (786-0) [%] | inhibition of growth at 10 µM (U-251) [%] | inhibition of growth at 10 µM (NCI-H23) [%] | inhibition of growth at 10 µM (MDA-MB-435) [%] | inhibition of growth at 10 µM [8] [%] | inhibition of growth at 10 µM (ACHN) [%] | inhibition of growth at 10 µM [9] [%] | inhibition of growth at 10 µM [11] [%] | other results |
| --- | --- | --- | --- | --- | --- | --- | --- | --- | --- | --- | --- | --- | --- | --- | --- | --- | --- | --- | --- | --- | --- |
| O=c1nc(N2CCOCC2)oc2c(-c3cccc4c3sc3ccccc34)cccc12 | 27 | 3.36 | 13.7 | -11.4 | 50.9 | 18.3 | 12.4 | 19.7 | 28.6 | 18.5 | 15.1 | -2.77 | 27.7 | 17.8 | 13.4 | 4.77 | 5.95 | 22.3 | 15.2 | 11.5 | inhibition of growth at 10 µM [10]: 53.8%; IC50 [12]: 0.034 µM; inhibition of growth at 10 µM (SN12C): 18%; inhibition of growth at 10 µM [13]: 3.55%; inhibition of growth at 10 µM [14]: 10.4%; inhibition of growth at 10 µM [15]: 19.2%; inhibition of growth at 10 µM [16]: 7.25%; inhibition of growth at 10 µM [17]: 20.2%; inhibition of growth at 10 µM [18]: 5.04%; inhibition of growth at 10 µM (HT-29): 16.9%; inhibition of growth at 10 µM (MDA-MB-468): 26.2%; inhibition of growth at 10 µM [19]: 24.8%; inhibition of growth at 10 µM [20]: 13.6%; inhibition of growth at 10 µM (SK-MEL-5): 17.2%; inhibition of growth at 10 µM [21]: 38.4% |
| O=c1nc(N2CCOCC2)oc2ccc(-c3cccc4c3sc3ccccc34)cc12 | 0 | -2.96 | -11.1 | -10.4 | 19.5 | -0.24 | 4.63 | 3.98 | -2.38 | 4.68 | 0.05 | 4.76 | 5.42 | 6.66 | -2.37 | 1.87 | 5.25 | -1.95 | -3.32 | -10.4 | inhibition of growth at 10 µM [10]: 41.6%; inhibition of growth at 10 µM (SN12C): 6.33%; inhibition of growth at 10 µM [13]: -17.8%; inhibition of growth at 10 µM [14]: -8.92%; inhibition of growth at 10 µM [15]: 2.44%; inhibition of growth at 10 µM [16]: 2.78%; inhibition of growth at 10 µM [17]: 0.97%; inhibition of growth at 10 µM [18]: 4.51%; inhibition of growth at 10 µM (HT-29): -13.4%; inhibition of growth at 10 µM (MDA-MB-468): 20%; inhibition of growth at 10 µM [19]: 1.62%; inhibition of growth at 10 µM [20]: 4.62%; inhibition of growth at 10 µM (SK-MEL-5): 9.84%; inhibition of growth at 10 µM [21]: -5.78% |
| NC(=O)c1ccc(-c2cccc3c(=O)nc(N4CCOCC4)oc23)cc1 | 10 | -3.93 | 0.57 | -3.41 | 8.01 | 7.01 | 14.6 | -4.18 | 10.4 | 0.88 | -1.74 | -3.25 | -0.31 | 2.31 | 7.55 | -6.9 | -3.57 | -0.43 | 6.21 | 2.5 | IC50 [12]: 8.81 µM; inhibition of growth at 10 µM (SN12C): -3.74%; inhibition of growth at 10 µM [13]: -1.23%; inhibition of growth at 10 µM [14]: -2.82%; inhibition of growth at 10 µM [15]: 2.66%; inhibition of growth at 10 µM [16]: 9.54%; inhibition of growth at 10 µM [17]: -1.1%; inhibition of growth at 10 µM [18]: -3.78%; inhibition of growth at 10 µM (HT-29): -0.51%; inhibition of growth at 10 µM (MDA-MB-468): -5.19%; inhibition of growth at 10 µM [19]: 2.8%; inhibition of growth at 10 µM [20]: 1.94%; inhibition of growth at 10 µM (SK-MEL-5): 2.24%; inhibition of growth at 10 µM [21]: -4.38% |
